Test results taken from ChEMBL document CHEMBL1138084, “Synthesis and SAR of novel histamine H3 receptor antagonists” (Bioorg Med Chem Lett, 2006).

Experiments:
[1] = target: Histamine H3 receptor (Homo sapiens, UniProt Q9Y5N1); test: Displacement of [3H]N-alpha-methylhistamine from human cloned H3 receptor
[2] = target: Histamine H3 receptor (Rattus norvegicus, UniProt Q9QYN8); test: Displacement of [3H]N-alpha-methylhistamine from rat cloned H3 receptor
[3] = Inhibition of [3H]R-alpha-methylhistamine binding to brain of po dosed rat; format: functional, organism-based
[4] = Oral bioavailability in rat at 10 mg/kg; format: ADME, organism-based; settings: in vivo

Sequence of Histamine H3 receptor (Rattus norvegicus, UniProt Q9QYN8) (Q9QYN8 whole entry): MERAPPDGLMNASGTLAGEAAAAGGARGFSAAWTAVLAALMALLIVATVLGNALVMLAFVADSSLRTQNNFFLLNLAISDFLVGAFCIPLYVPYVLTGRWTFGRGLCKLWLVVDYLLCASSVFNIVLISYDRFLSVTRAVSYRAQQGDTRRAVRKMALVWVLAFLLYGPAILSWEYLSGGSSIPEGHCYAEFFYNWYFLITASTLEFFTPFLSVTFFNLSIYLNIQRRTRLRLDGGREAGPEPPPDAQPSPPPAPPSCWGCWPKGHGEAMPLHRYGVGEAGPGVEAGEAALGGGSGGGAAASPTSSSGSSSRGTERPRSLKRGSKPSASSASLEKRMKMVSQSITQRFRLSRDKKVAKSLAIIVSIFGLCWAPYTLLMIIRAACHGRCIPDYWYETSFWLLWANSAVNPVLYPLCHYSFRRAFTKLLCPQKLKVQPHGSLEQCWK
Sequence of Histamine H3 receptor (Homo sapiens, UniProt Q9Y5N1) (Q9Y5N1 whole entry): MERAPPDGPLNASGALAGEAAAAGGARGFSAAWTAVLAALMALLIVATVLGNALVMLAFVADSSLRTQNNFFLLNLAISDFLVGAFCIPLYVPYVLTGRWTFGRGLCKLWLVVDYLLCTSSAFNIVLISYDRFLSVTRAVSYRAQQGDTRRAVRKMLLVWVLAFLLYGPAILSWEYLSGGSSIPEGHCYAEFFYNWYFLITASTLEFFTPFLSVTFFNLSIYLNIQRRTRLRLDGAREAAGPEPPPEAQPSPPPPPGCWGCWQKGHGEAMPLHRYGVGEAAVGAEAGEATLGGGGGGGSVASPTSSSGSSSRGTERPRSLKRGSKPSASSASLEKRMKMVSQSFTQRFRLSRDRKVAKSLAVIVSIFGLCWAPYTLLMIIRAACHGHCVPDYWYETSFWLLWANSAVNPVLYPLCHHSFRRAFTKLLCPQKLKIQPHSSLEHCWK

| Structure (SMILES) | Ki ([1]; read-out: Ki) [nM] | Ki [2] [nM] | other results |
| --- | --- | --- | --- |
| CCN1CCc2ccc(OCCCN3CCCCC3)cc2CC1 | 0.26 | 1.1 |  |
| O=C(c1cccs1)N1CCc2cccc(OCCCN3CCCCC3)c2C1 | > 300 |  |  |
| c1cc2c(cc1OCCCN1CCCCC1)NCCC2 | 129 |  |  |
| CC(C)N1CCc2ccc(OCCCN3CCCCC3)cc2C1 | 0.17 | 0.89 |  |
| CCN1CCCc2cc(OCCCN3CCCCC3)ccc21 | 41 |  |  |
| c1cc2c(cc1OCCCN1CCCCC1)CNCC2 | 0.6 |  |  |
| CCN1CCc2cccc(OCCCN3CCCCC3)c2C1 | 95.2 |  |  |
| c1cc2c(c(OCCCN3CCCCC3)c1)CCNC2 | > 300 |  |  |
| c1cc2c(cc1OCCCN1CCCCC1)CCNC2 |  |  | Ki [1]: 2.4 |
| O=C(c1cccs1)N1CCc2c(cccc2OCCCN2CCCCC2)C1 | > 300 |  |  |
| O=S(=O)(c1ccccc1)N1CCCc2cccc(OCCCN3CCCCC3)c21 | > 300 |  |  |
| O=S(=O)(c1ccccc1)N1CCc2c(cccc2OCCCN2CCCCC2)C1 | > 300 |  |  |
| CC(C)N1CCc2ccc(OCCCN3CCCCC3)cc2CC1 | 0.72 | 1.6 |  |
| CCN1CCCc2c(OCCCN3CCCCC3)cccc21 | > 300 |  |  |
| c1cc2c(cc1OCCCN1CCCCC1)N(CC1CCCCC1)CCC2 | 187 |  |  |
| c1cc(OCCCN2CCCCC2)c2c(c1)N(CC1CCCCC1)CCC2 | 141 |  |  |
| CCN1CCCc2ccc(OCCCN3CCCCC3)cc21 | 156 |  |  |
| c1cc2c(c(OCCCN3CCCCC3)c1)CCCN2 | > 300 |  |  |
| c1cc2c(c(OCCCN3CCCCC3)c1)N(CC1CCCCC1)CCC2 | > 300 |  |  |
| CCN1CCc2cc(OCCCN3CCCCC3)ccc2C1 | 0.54 |  |  |
| c1cc2c(c(OCCCN3CCCCC3)c1)CNCC2 | 154 |  |  |
| CCN1CCc2c(cccc2OCCCN2CCCCC2)C1 | 84.2 |  |  |
| c1cc2c(c(OCCCN3CCCCC3)c1)NCCC2 | > 300 |  |  |
| CCN1CCCc2cccc(OCCCN3CCCCC3)c21 | > 300 |  |  |
| CC(C)NC(=O)N1CCc2ccc(OCCCN3CCCCC3)cc2CC1 | 42.3 |  |  |
| CCN1CCc2ccc(OCCCN3CCCCC3)cc2C1 | 0.34 | 0.64 | IC50 [3]: 1.1 mg/kg; bioavailability [4]: 69% |
| O=S(=O)(c1ccccc1)N1CCc2cccc(OCCCN3CCCCC3)c2C1 | > 300 |  |  |
| O=C(c1cccs1)N1CCCc2cccc(OCCCN3CCCCC3)c21 | > 300 |  |  |
| c1cc2c(c(OCCCN3CCCCC3)c1)CN(CC1CCCCC1)CC2 | 59 |  |  |
| c1cc2c(cc1OCCCN1CCCCC1)CCCN2 | 54 |  |  |

Second part, led by results:

| Ki ([1]; read-out: Ki) [nM] | Ki [2] [nM] | Structure (SMILES) | other results |
| --- | --- | --- | --- |
| 2.9 | 70.1 | CS(=O)(=O)N1CCCc2cc(OCCCN3CCCCC3)ccc2C1 |  |
| 0.34 | 0.56 | CCN1CCCc2cc(OCCCN3CCCCC3)ccc2C1 |  |
| 0.2 | 0.8 | c1ccc(CN2CCCc3cc(OCCCN4CCCCC4)ccc3C2)cc1 |  |
| 22.6 |  | O=C(c1cccs1)N1CCCc2ccc(OCCCN3CCCCC3)cc21 |  |
| 4.9 | 39.6 | CC(C)NC(=O)N1CCc2ccc(OCCCN3CCCCC3)cc2C1 |  |
| 23.8 | 74.5 | CS(=O)(=O)N1CCc2ccc(OCCCN3CCCCC3)cc2C1 |  |
| 18 |  | O=S(=O)(c1ccccc1)N1CCCc2cc(OCCCN3CCCCC3)ccc21 |  |
| 17.1 | 32.5 | CC(C)NC(=O)N1CCCc2cc(OCCCN3CCCCC3)ccc2C1 |  |
| 12.1 | 38.1 | CS(=O)(=O)N1CCc2ccc(OCCCN3CCCCC3)cc2CC1 |  |
| 7.3 |  | O=S(=O)(c1ccccc1)N1CCCc2ccc(OCCCN3CCCCC3)cc21 |  |
| 0.2 | 1.29 | CC(C)N1CCCc2cc(OCCCN3CCCCC3)ccc2C1 | IC50 [3]: 5.3 mg/kg; bioavailability [4]: ≥ 100% |
| 31 |  | c1cc2c(cc1OCCCN1CCCCC1)CCCN2CC1CCCCC1 |  |
| 11.6 | 48.8 | CC(=O)N1CCc2ccc(OCCCN3CCCCC3)cc2CC1 |  |
| 8.1 |  | O=C(c1cccs1)N1CCc2ccc(OCCCN3CCCCC3)cc2C1 |  |
| 7.4 |  | O=S(=O)(c1ccccc1)N1CCc2cc(OCCCN3CCCCC3)ccc2C1 |  |
| 0.35 | 0.46 | c1cc2c(cc1OCCCN1CCCCC1)CN(CC1CCCCC1)CC2 |  |
| 19.4 | 36.7 | CC(=O)N1CCc2ccc(OCCCN3CCCCC3)cc2C1 |  |
| 1.01 |  | c1cc2c(cc1OCCCN1CCCCC1)CCN(CC1CCCCC1)C2 |  |
| 0.53 | 0.97 | c1cc2c(cc1OCCCN1CCCCC1)CCN(CC1CCCCC1)CC2 |  |
| 2.1 |  | O=C(c1cccs1)N1CCc2cc(OCCCN3CCCCC3)ccc2C1 |  |
| 0.53 |  | O=S(=O)(c1ccccc1)N1CCc2ccc(OCCCN3CCCCC3)cc2C1 |  |
| 15.4 |  | c1cc2c(c(OCCCN3CCCCC3)c1)CCN(CC1CCCCC1)C2 |  |
